From article PMC10859961, “Ir(III) Half-Sandwich Photosensitizers with a π-Expansive Ligand for Efficient Anticancer Photodynamic Therapy” (Journal of Medicinal Chemistry, 2024)
Read-outs that look alike come from different tables or passages of the source.

Key:
A549 cancer cells = test: MTT cell viability assay, dark or photoactivated; assay type: cell-based, human; conditions: 4 h incubation, kept in the dark, viability after 48 h, MTT, read-out: IC50 dark
Description: Cells were cultured in 96-well plates at a density of 3000 (A549), 2500 (HeLa), or 5000 (PC-3, 1BR.3.G, and MRC-5) cells per well in cell culture medium and allowed to attach for 24 h. Solutions of the complexes at different concentrations were prepared for cell treatments. In all cases, the solid compounds were weighed using an analytical balance (Mettler Toledo AX205DR) to ensure precise measurements. Subsequently, 5 mM solutions were prepared using DMSO. Solutions were then diluted in water to reach a concentration of 1 mM and then, aliquots were taken and diluted in culture medium to obtain solutions ranging from 0 to 50 μM. […] The cells were treated with these solutions in dark conditions or following the photoactivation protocol (see below). 48 h later the treatments were removed, and cells were washed with phosphate-buffered saline (PBS).
Initially, the effect of the complexes on the cell viability was determined by the 3-(4,5-dimethylthiazol-2-yl)-2,5-diphenyltetrazolium bromide (MTT) assay.[147] The cells were incubated for 2 h with 100 μL of culture medium together with 10 μL of MTT (Sigma-Aldrich) at 0.5 mg/mL. After discarding the medium, DMSO was added to each well to dissolve the purple formazan crystals. The absorbance of each well was determined on a Multiscan Plate Reader (Synergy 4, Biotek, Winooski) at a wavelength of 570 nm. Cell viability was also assessed using the CyQUANT Direct Cell Proliferation Assay (Thermo Fisher Scientific), following the manufacturer’s instructions. Briefly, after the treatments, the cells were washed with PBS, and an equal volume of culture medium and CyQUANT mix was added to each well. The plates were then incubated for 1 h at 37 °C. Subsequently, the fluorescence intensity was bottom read using a Multiscan Plate Reader (Synergy 4, Biotek, Winooski) with excitation and emission filters of 485 and 528 nm, respectively. In both assays, at least three replicates were measured for each treatment. The concentration that reduces the cell viability by 50% (IC50) was established using the Gen5 software (BioTek). Three independent experiments were carried out for each compound. […] The phototoxicity index (PI = IC50,dark/IC50,light) was determined.
To assess the photodynamic activity of the complexes, cells were incubated with the complexes for 4 h to enable their intracellular accumulation. The cells were then irradiated with light with a wavelength of 460 nm (blue), 530 nm (green), or 655 nm (red) for 1 h using a LED system (LuxLight) with an effective power of 6.7 mW cm^–2, which provides a total light dose of 24.1 J cm^–2. The LED system was positioned at 25 mm from the cell culture plates.

[1] = pKa determination (absorbance vs pH); assay type: physicochemical; conditions: H2O/DMSO (98/2, v/v) solution; DMSO/H2O (2/98, v/v), Bu4NBF4 5 mM; piperidine ring; read-out: pKa
Description: Solutions of complexes 5 and 6 (2.00 × 10^–5 M) and Imepip ligand (2.00 × 10^–3 M) in H2O/DMSO (98/2, v/v) mixture with n-Bu4NBF4 (5 mM) were prepared. The presence of the salt ensured the conductivity of the media. Evolution of the peaks was studied at different pH by recording the absorbance spectrum. Aliquots of 10 μL of HCl (0.002–0.020 M) or NaOH (0.002–0.020 M) were added to a solution of 2.4 mL of complex to vary the pH. The absorbance versus pH plot enables us to determine one constant according to the equation from the Wilson and Lester method (eq 2):[146] [drawing 23] 2 where Aa is the absorbance for the acid species, Ab is the absorbance for the basic species, and Am is the absorbance of the mixture. The intersection obtained by representing log(Am – Aa)/(Ab – Am) versus pH provides the pKa.

[2] = H2O/DMSO (95:5); cited from earlier work
[3] = degassed acetonitrile; cited from earlier work
A549 = conditions: 425 nm, dose 1.2 J cm‐2, ref e (ACS Appl. Mater. Interfaces, 2017, 9, 42471; main text ref 24); cited from earlier work
HeLa = conditions: 425 nm, dose 1.2 J cm‐2, ref e (ACS Appl. Mater. Interfaces, 2017, 9, 42471; main text ref 24); cited from earlier work
SK‐MEL28 = conditions: visible light, dose 100 J cm‐2, ref m (Inorg. Chem. 2016, 55, 83); cited from earlier work
[4] = 1O2 quantum yield determination with DPBF; conditions: acetonitrile
Description: It was performed for complexes 1–8 in acetonitrile according to a relative procedure adapted from the literature[132]−[134] based on monitoring the oxidation of 1,3-diphenylisobenzofuran (DPBF, yellow) to 1,2-dibenzoylbenzene (colorless) photosensitized by the Ir(III) complexes. DPBF was used as an ^1O2 scavenger due to its fast reaction with this molecule. Fresh stock air-equilibrated solutions of photosensitizers (6.00 × 10^–6 M) and DPBF (1.50 × 10^–4 M) in acetonitrile were prepared. In a quartz cell, 1 mL of DPBF solution, 0.5 mL of complex solution, and 1.5 mL of acetonitrile were mixed to prepare a final solution with 5.00 × 10^–5 M DPBF and 1.00 × 10^–6 M complex. The final solutions were studied by recording UV–vis absorption spectra at room temperature in dark conditions (over a period of 6 min with time intervals of 2 min), under blue light irradiation (λexc = 470 nm, “Medusa” photoreactor) and under green light irradiation (λexc = 530 nm, “Medusa” photoreactor) for 5 s irradiation intervals during a total exposure period of 20 s. Absorption UV–vis spectra were recorded after every irradiation interval.
The consumption of DPBF probe was measured by monitoring its absorbance intensity decrease at 410 nm with irradiation time. ^1O2 generation quantum yield (ϕΔ) was calculated from eq 1 using Rose Bengal or [Ru(bpy)3]^2+ as reference for complexes with pbpz and pbpn ligands, respectively: [drawing 22] 1 where s and ref subscripts correspond to the complex and the reference, ϕΔ is the ^1O2 generation quantum yield (0.53 for Rose Bengal[135] and 0.56 for [Ru(bpy)3]Cl2[132] in degassed acetonitrile), S is the slope of the plots of the −ln(normalized absorbance) of DPBF at 410 nm vs the irradiation time, and F is the correction factor of absorption, which is given by F = 1–10^–O.D. (where O.D. is the optical density at 470 nm of solutions of complexes and references). The reproducibility of the results was confirmed by performing each experiment three times.
The stability of DPBF probe was studied in dark conditions and under light irradiation. In dark conditions and under green light irradiation the probe remains unaltered. However, under blue light irradiation, a photobleaching of DPBF was observed. Probe consumption was approximately 6.5% every 5 s. Therefore, a working interval of 20 s was chosen, where 75% of the probe remains stable. To calculate the ϕΔ, a correction factor was applied to the absorbance at 410 nm: a 6.5% of the previous value was added to each absorbance to counteract self-consumption of the probe (i.e., to the absorbance at 10 s, a 6.5% of the absorbance at 5 s was added).

HT29 = tested on: HT29; parameters: method as in p (Pozza et al., Inorg. Chem. 2023); conditions: 540 nm, dose 9 J cm‐2, ref p (Pozza et al., Inorg. Chem. 2023); cited from earlier work
CT26 = tested on: CT26; parameters: method as in p (Pozza et al., Inorg. Chem. 2023); conditions: 540 nm, dose 9 J cm‐2, ref p (Pozza et al., Inorg. Chem. 2023); cited from earlier work
RPE‐1 = tested on: RPE‐1; parameters: method as in p (Pozza et al., Inorg. Chem. 2023); conditions: cited from earlier work
[5] = 540 nm, dose 9 J cm‐2, ref p (Pozza et al., Inorg. Chem. 2023)
[6] = 620 nm, dose 6.7 J cm‐2, ref p (Pozza et al., Inorg. Chem. 2023)

c1cn(CCN2CCCCC2)cn1 [(N-ethylpiperidyl)imidazole, reference compound]
IC50 (A549 cancer cells; A549): 68 ± 2 µM | IC50 (A549 cancer cells; Homo sapiens, A549, A549): > 50 µM | pKa [1]: 7.1

O=C([O-])c1c(Cl)c(Cl)c(Cl)c(Cl)c1-c1c2cc(I)c(=O)c(I)c-2oc2c(I)c([O-])c(I)cc12.[Na+].[Na+] [Rose Bengal]
1O2 generation quantum yield (ϕΔ) of reference [2]: 0.76 | 1O2 generation quantum yield (ϕΔ) of reference [3]: 0.53

F[P-](F)(F)(F)(F)F.[Ir+3].[c-]1ccccc1-c1ccccn1.[c-]1ccccc1-c1ccccn1.c1ccc2cc3[nH]c(-c4ccc5ccccc5n4)nc3cc2c1 [[Ir(N^∧N)(ppy)2]PF6]
PI/Dose (A549): 268 | PI/Dose (HeLa): 397

[Ru+2].[c-]1cccc2c1c1ncccc1c1nc3cc4ccccc4cc3nc21.c1ccc(-c2ccccn2)nc1.c1ccc(-c2ccccn2)nc1 [[Ru(bpy)2(pbpn)]+]
PI (SK‐MEL28): > 1400 | PI/Dose (SK‐MEL28): > 140

[Cl][Ru][Cl].c1ccc(-c2ccccn2)nc1.c1ccc(-c2ccccn2)nc1.c1ccc(-c2ccccn2)nc1 [[Ru(bpy)3]Cl2, reference compound]
Slope (S) of ‐ln(normalized Abs) vs time, photooxidation of DPBF ([4]; λir = 470 nm): 0.0535 | Slope (S) of ‐ln(normalized Abs) vs time, photooxidation of DPBF ([4]; λir = 530 nm): 0.0057 | 1O2 generation quantum yield (ϕΔ) of reference [2]: 0.18 | 1O2 generation quantum yield (ϕΔ) of reference [3]: 0.56

[Ru+2].c1ccc2cc3nc4c5cccnc5c5ncccc5c4nc3cc2c1.c1ccc2cc3nc4c5cccnc5c5ncccc5c4nc3cc2c1.c1cnc2c(c1)ccc1cccnc12 [[Ru(dppn)2(phen)]2+]
PI (HT29): 556 | PI/Dose (HT29): 61.8 | PI (CT26): 1666 | PI/Dose (CT26): 185.1 | PI (RPE‐1; [5]): 556 | PI/Dose (RPE‐1; [5]): 61.8 | PI (RPE‐1; [6]): 333 | PI/Dose (RPE‐1; [6]): 49.7
